Measured values: ChEMBL document CHEMBL5257074, “Structure Elucidation and Biosynthesis of Nannosterols A and B, Myxobacterial Sterols from Nannocystis sp. MNa10993” (J Nat Prod, 2023)
Active and inactive are the calls of the source.

What was measured:
[1] = test system: Candida albicans; experiment: Antifungal activity against Candida albicans DSM 1665 assessed as inhibition of fungal growth measured after 18 to 48 hrs by microbroth dilution assay; assay type: functional, organism-based; details: time 18-48 hrs
[2] = test system: Bacillus subtilis; experiment: Antibacterial activity against Bacillus subtilis DSM10T assessed as inhibition of bacterial growth measured after 18 to 28 hrs by microbroth dilution assay; assay type: functional, organism-based; details: time 18-28 hrs
[3] = test system: Mucor hiemalis; experiment: Antifungal activity against Mucor hiemalis DSM 2656 assessed as inhibition of fungal growth measured after 18 to 48 hrs by microbroth dilution assay; assay type: functional, organism-based; details: time 18-48 hrs
[4] = test system: HepG2; experiment: Antiproliferative activity against human HepG2 cells incubated for 5 days by MTT assay; assay type: functional, cell-based; details: time 5.0 day
[5] = test system: Escherichia coli; experiment: Antibacterial activity against Escherichia coli JW0451-2 assessed as inhibition of bacterial growth measured after 18 to 48 hrs by microbroth dilution assay; assay type: functional, organism-based; details: time 18-48 hrs
[6] = test system: Mycolicibacterium smegmatis; experiment: Antibacterial activity against Mycobacterium smegmatis (DSM 43756) assessed as inhibition of bacterial growth measured after 18 to 28 hrs by microbroth dilution assay; assay type: functional, organism-based; details: time 18-28 hrs
[7] = test system: Escherichia coli; experiment: Antibacterial activity against Escherichia coli DSM 1116T assessed as inhibition of bacterial growth measured after 18 to 48 hrs by microbroth dilution assay; assay type: functional, organism-based; details: time 18-48 hrs
[8] = test system: Staphylococcus aureus; experiment: Antibacterial activity against Staphylococcus aureus Newman assessed as inhibition of bacterial growth measured after 18 to 28 hrs by microbroth dilution assay; assay type: functional, organism-based; details: time 18-28 hrs
[9] = test system: Pseudomonas aeruginosa; experiment: Antibacterial activity against Pseudomonas aeruginosa PA14 (DSM 19882) assessed as inhibition of bacterial growth measured after 18 to 48 hrs by microbroth dilution assay; assay type: functional, organism-based; details: time 18-48 hrs

Measured: Activity

C[C@H](CC[C@@H](O)C(C)(C)O)[C@H]1C[C@@H](O)[C@H]2[C@@H]3C(=O)C[C@H]4C[C@@H](O)CC[C@]4(C)[C@H]3CC[C@@]21C
inactive: all assays above

C[C@H](CC[C@@H](O)C(C)(C)O)[C@H]1C[C@@H](O)[C@H]2[C@@H]3C(=O)C[C@H]4C[C@@H](O)CC[C@]4(C)[C@H]3CC[C@@]21CO
inactive: all assays above
